Assays:
MV4-11 cells = assay: MV4-11 cellular proliferative assay, Assay Format B (CTG 2.0, 168 h); format: cell-based; conditions: Homo sapiens, Assay format B, 168 h, read-out: IC50 (MV4-11 cellular proliferative assay)
Procedure: MV4-11 cells at a confluency of ~50-80% was used for cell growth assay. 600 cells/well in a 384-well opaque cell culture plate (6007680; Perkin Elmer) were seeded in 40 μL of complete medium (IMDM+10% FBS+1× Penicillin-Streptomycin). Cells were incubated overnight at 37° C., 5% CO2. 10 mM DMSO stocks were prepared, cells were treated with 10 concentrations of test compounds starting from 1 uM or 100 nM, 3-fold dilution in 10 uL (5× concentration) of complete medium. Final DMSO concentration was 0.3%. Culture plates were centrifuged at 40×g, 30s. Cells were incubated with compounds for 168 h (7 days). After 7 days, 20 uL CTG 2.0 reagent (G9242; Promega) was added per well and luminescence reading was taken in Envision Xcite 2105 multimode plate reader. Data was analyzed in GraphPad Prism 10.0 and data was shown as % viability with respect to DMSO control and dose-response curves were generated using four parameter logistic regression. Assay quality was determined by z-factor calculation using positive and negative controls.

MLLT1 = biological target: T1, MLLT1 (Homo sapiens, UniProt Q03111); assay: MLLT1 degradation assay in MV4-11 cells (JESS, 24 h); format: cell-based; parameters: endogenous in cells; host or cells: MV4-11 (ATCC CRL-9591); conditions: vs DMSO control
T1 sequence (Q03111 1-559): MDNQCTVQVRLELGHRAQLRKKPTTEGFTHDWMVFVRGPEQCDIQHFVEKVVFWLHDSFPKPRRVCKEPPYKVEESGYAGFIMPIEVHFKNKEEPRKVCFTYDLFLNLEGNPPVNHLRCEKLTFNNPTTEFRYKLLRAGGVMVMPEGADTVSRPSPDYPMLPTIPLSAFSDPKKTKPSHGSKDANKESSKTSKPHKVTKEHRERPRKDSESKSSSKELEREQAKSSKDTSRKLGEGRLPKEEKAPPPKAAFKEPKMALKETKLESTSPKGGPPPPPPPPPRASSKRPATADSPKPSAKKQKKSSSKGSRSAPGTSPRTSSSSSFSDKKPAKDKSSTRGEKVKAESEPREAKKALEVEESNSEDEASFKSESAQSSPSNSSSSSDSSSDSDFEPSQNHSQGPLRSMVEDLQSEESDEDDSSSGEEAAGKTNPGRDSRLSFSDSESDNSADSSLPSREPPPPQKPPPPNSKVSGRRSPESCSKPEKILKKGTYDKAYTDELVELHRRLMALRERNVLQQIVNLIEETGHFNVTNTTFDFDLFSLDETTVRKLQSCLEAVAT
Method in brief: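 MV4-11 cells treated at 1000, 100 and 10 nM (0.1% DMSO) for 24 h at 37° C; lysates (4 ug protein) run on JESS capillary immunoassay with MLLT1 and GAPDH antibodies. Peak areas give % degradation versus DMSO, binned A (≥75%) to D (<25%).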

| SMILES | IC50 (MV4-11 cells) [nM] | MLLT1% Degradation @ 0.01 μM (MLLT1) | MLLT1% Degradation @ 0.1 μM (MLLT1) | MLLT1% Degradation @ 1 μM (MLLT1) |
| --- | --- | --- | --- | --- |
| Cc1c([C@H]2CCCN2C)[nH]c2cc(NC(=O)c3ccc4c(C)nn(CCCCCCCC#Cc5cccc6c5CN(C5CCC(=O)NC5=O)C6=O)c4c3)ncc12 (stereo partly drawn) [Example 57, 1-(9-(2-(2,6-dioxopiperidin-3-yl)-1-oxoisoindolin-4-yl)non-8-yn-1-yl)-3-methyl-N-(3-methyl-2-((R)-1-methylpyrrolidin-2-yl)-1H-pyrrolo[3,2-c]pyridin-6-yl)-1H-indazole-6-carboxamide] | < 100 | A (Category A: A≥75% degradation) | A (Category A: A≥75% degradation) | A (Category A: A≥75% degradation) |
| Cc1nn(CCCCCCCCC#Cc2cccc3c2CN(C2CCC(=O)NC2=O)C3=O)c2cc(C(=O)Nc3cc4[nH]c([C@H]5CCCN5C)cc4cn3)ccc12 (stereo partly drawn) [Example 54, 1-(10-(2-(2,6-dioxopiperidin-3-yl)-1-oxoisoindolin-4-yl)dec-9-yn-1-yl)-3-methyl-N-(2-((R)-1-methylpyrrolidin-2-yl)-1H-pyrrolo[3,2-c]pyridin-6-yl)-1H-indazole-6-carboxamide] | < 100 | A (Category A: A≥75% degradation) | A (Category A: A≥75% degradation) | A (Category A: A≥75% degradation) |
| Cc1nn(CC2CCN(c3cccc4c3CN(C3CCC(=O)NC3=O)C4=O)CC2)c2cc(C(=O)Nc3cc4[nH]c([C@H]5CCCN5C)cc4cn3)ccc12 (stereo partly drawn) [Example 106, 1-((1-(2-(2,6-dioxopiperidin-3-yl)-1-oxoisoindolin-4-yl)piperidin-4-yl)methyl)-3-methyl-N-(2-((R)-1-methylpyrrolidin-2-yl)-1H-pyrrolo[3,2-c]pyridin-6-yl)-1H-indazole-6-carboxamide] | < 100 | A (Category A: A≥75% degradation) | A (Category A: A≥75% degradation) | A (Category A: A≥75% degradation) |
| CN1CCC[C@@H]1c1cc2cnc(NC(=O)c3ccc4c(C5CC5)nn(CCCCCCCC#Cc5cccc6c5CN(C5CCC(=O)NC5=O)C6=O)c4c3)cc2[nH]1 (stereo partly drawn) [Example 59, 3-cyclopropyl-1-(9-(2-(2,6-dioxopiperidin-3-yl)-1-oxoisoindolin-4-yl)non-8-yn-1-yl)-N-(2-((R)-1-methylpyrrolidin-2-yl)-1H-pyrrolo [3,2-c]pyridin-6-yl)-1H-indazole-6-carboxamide] | < 100 | A (Category A: A≥75% degradation) | A (Category A: A≥75% degradation) | A (Category A: A≥75% degradation) |
| Cc1nn(CCCCCCCC#Cc2cccc3c2CN([C@H]2CCC(=O)NC2=O)C3=O)c2cc(C(=O)Nc3cc4[nH]c([C@H]5CCCN5C)cc4cn3)c(F)cc12 (relative stereo) [Example 102, 1-(9-(2-((rel-S)-2,6-dioxopiperidin-3-yl)-1-oxoisoindolin-4-yl)non-8-yn-1-yl)-5-fluoro-3-methyl-N-(2-((R)-1-methylpyrrolidin-2-yl)-1H-pyrrolo[3,2-c]pyridin-6-yl)-1H-indazole-6-carboxamide] | < 100 | A (Category A: A≥75% degradation) | A (Category A: A≥75% degradation) | A (Category A: A≥75% degradation) |
| Cc1nn(CCCCCCCC#Cc2cccc3c2CN(C2CCC(=O)NC2=O)C3=O)c2cc(C(=O)Nc3cc4[nH]c([C@H]5CCCN5C)c(C#N)c4cn3)ccc12 (stereo partly drawn) [Example 66, N-(3-cyano-2-((R)-1-methylpyrrolidin-2-yl)-1H-pyrrolo[3,2-c]pyridin-6-yl)-1-(9-(2-(2,6-dioxopiperidin-3-yl)-1-oxoisoindolin-4-yl)non-8-yn-1-yl)-3-methyl-1H-indazole-6-carboxamide] | < 100 | A (Category A: A≥75% degradation) | A (Category A: A≥75% degradation) | A (Category A: A≥75% degradation) |
| Cc1nn(C2CCN(CC3CCN(c4cc5c(cc4F)C(=O)N(C4CCC(=O)NC4=O)C5=O)CC3)CC2)c2cc(C(=O)Nc3cc4[nH]c([C@H]5CCCN5C)cc4cn3)ccc12 (stereo partly drawn) [Example 69, 1-(1-((1-(2-(2,6-dioxopiperidin-3-yl)-6-fluoro-1,3-dioxoisoindolin-5-yl)piperidin-4-yl)methyl)piperidin-4-yl)-3-methyl-N-(2-((R)-1-methylpyrrolidin-2-yl)-1H-pyrrolo[3,2-c]pyridin-6-yl)-1H-indazole-6-carboxamide] | < 100 | A (Category A: A≥75% degradation) | A (Category A: A≥75% degradation) | A (Category A: A≥75% degradation) |
| Cc1nn(CCCCCCCC#Cc2ccc(F)c3c2CN(C2CCC(=O)NC2=O)C3=O)c2cc(C(=O)Nc3cc4[nH]c([C@H]5CCCN5C)cc4cn3)ccc12 (stereo partly drawn) [Example 52, 1-(9-(2-(2,6-dioxopiperidin-3-yl)-7-fluoro-1-oxoisoindolin-4-yl)non-8-yn-1-yl)-3-methyl-N-(2-((R)-1-methylpyrrolidin-2-yl)-1H-pyrrolo[3,2-c]pyridin-6-yl)-1H-indazole-6-carboxamide] | < 100 | A (Category A: A≥75% degradation) | A (Category A: A≥75% degradation) | A (Category A: A≥75% degradation) |
| Cc1nn(CC#Cc2cccc3c2CN(C2CCC(=O)NC2=O)C3=O)c2cc(C(=O)Nc3cc4[nH]c([C@H]5CCCN5C)cc4cn3)ccc12 (stereo partly drawn) [Example 72, 1-(3-(2-(2,6-dioxopiperidin-3-yl)-1-oxoisoindolin-4-yl)prop-2-yn-1-yl)-3-methyl-N-(2-((R)-1-methylpyrrolidin-2-yl)-1H-pyrrolo[3,2-c]pyridin-6-yl)-1H-indazole-6-carboxamide] | < 100 | A (Category A: A≥75% degradation) | A (Category A: A≥75% degradation) | B (Category B: 50%≤B<75% degradation) |
| Cc1nn(CCCCCCCC#Cc2cccc3c2CN([C@@H]2CCC(=O)NC2=O)C3=O)c2cc(C(=O)Nc3cc4[nH]c([C@H]5CCCN5C)cc4cn3)ccc12 (relative stereo) [Example 99, 1-(9-(2-((rel-R)-2,6-dioxopiperidin-3-yl)-1-oxoisoindolin-4-yl)non-8-yn-1-yl)-3-methyl-N-(2-((R)-1-methylpyrrolidin-2-yl)-1H-pyrrolo[3,2-c]pyridin-6-yl)-1H-indazole-6-carboxamide] | < 100 | A (Category A: A≥75% degradation) | A (Category A: A≥75% degradation) | A (Category A: A≥75% degradation) |
| Cc1nn(CCCCCCCC#Cc2ccc3c(c2)n(C)c(=O)n3C2CCC(=O)NC2=O)c2cc(C(=O)Nc3cc4[nH]c([C@H]5CCCN5C)cc4cn3)ccc12 (stereo partly drawn) [Example 39, 1-(9-(1-(2,6-dioxopiperidin-3-yl)-3-methyl-2-oxo-2,3-dihydro-1H-benzo[d]imidazol-5-yl)non-8-yn-1-yl)-3-methyl-N-(2-((R)-1-methylpyrrolidin-2-yl)-1H-pyrrolo[3,2-c]pyridin-6-yl)-1H-indazole-6-carboxamide] | < 100 | A (Category A: A≥75% degradation) | A (Category A: A≥75% degradation) | A (Category A: A≥75% degradation) |
| Cc1nn(CCCCCCCC#Cc2cccc3c2CN(C2CCC(=O)NC2=O)C3=O)c2cc(C(=O)Nc3cc4[nH]c([C@H]5CCCN5C)cc4cn3)c(F)cc12 (stereo partly drawn) [Example 58, 1-(9-(2-(2,6-dioxopiperidin-3-yl)-1-oxoisoindolin-4-yl)non-8-yn-1-yl)-5-fluoro-3-methyl-N-(2-((R)-1-methylpyrrolidin-2-yl)-1H-pyrrolo[3,2-c]pyridin-6-yl)-1H-indazole-6-carboxamide] | < 100 | A (Category A: A≥75% degradation) | A (Category A: A≥75% degradation) | A (Category A: A≥75% degradation) |

Source: US20260199484A1, “PROTAC DEGRADERS OF MLLT1 AND/OR MLLT3” (DARK BLUE THERAPEUTICS LTD, priority 2024, published 2026)
